“Also recorded” adds a separate entry of the source. Like-named read-outs stand apart in the source and are kept apart here. Non-standard residues stand in square brackets, D forms with d. Residues, ends and D or L forms follow the SMILES beside them. dPhe(4-tBu) = CC(C)(C)c1ccc(C[C@@H](N)C(=O)O)cc1; dPhe(3,4-Cl2) = N[C@H](Cc1ccc(Cl)c(Cl)c1)C(=O)O; dPhe(4-CF3) = N[C@H](Cc1ccc(C(F)(F)F)cc1)C(=O)O; dPhe(4-CN) = N#Cc1ccc(C[C@@H](N)C(=O)O)cc1; dBip = N[C@H](Cc1ccc(-c2ccccc2)cc1)C(=O)O; dPhe(4-Br) = N[C@H](Cc1ccc(Br)cc1)C(=O)O; dPhe(4-Me) = Cc1ccc(C[C@@H](N)C(=O)O)cc1; dPhe(4-F) = N[C@H](Cc1ccc(F)cc1)C(=O)O; Tic = O=C(O)[C@@H]1Cc2ccccc2CN1
Assays:
mMC3R = biological target: T1, mMC3R (Mus musculus, UniProt P33033); assay: β-galactosidase cAMP reporter assay, agonist pharmacology in HEK293 cells stably expressing mMC3R; assay type: cell-based; conditions: for mMC3R percent maximal stimulation relative to NDP-MSH (partial agonist): relative to maximal NDP-MSH signal; for EC50: β-galactosidase cAMP, HEK293, mean ± SEM, apparent EC50 for partial agonists; for decreased agonist potency at the mMC3R compared to KNS2-22-4: ratio of EC50 to KNS2-22-4; for agonist selectivity for the mMC3R over the mMC4R: mMC3R versus mMC4R agonist potency
T1 construct: expressed in transfected cells
Method: (§1) Peptides were synthesized manually with microwave irradiation using standard Fmoc synthesis techniques and purified using semi-preparative reverse-phase high-pressure liquid-chromatography (RP-HPLC). […] Agonist pharmacology was measured at the mMC3R, mMC4R, and mMC5R using a colorimetric β-galactosidase assay that measures cAMP production. Agonist pharmacology was assessed at the mMC1R using the Amplified Luminescent Proximity Homogenous Assay Screen (AlphaScreen, PerkinElmer), as previously described. The MC2R is only stimulated by ACTH, and was not examined in this study. For both assays, HEK293 cells stably expressing the mMCRs were used.
(§2) The peptide ligands were assessed for pharmacological activity at the mMC3R, mMC4R, and mMC5R using a β-galactosidase assay. Briefly, HEK293 cells stably expressing the MC3R, MC4R, or MC5R were plated into a 10 cm dish and grown to 40% confluency. The HEK293 cells were transfected with 4 µg of CRE/β-galactosidase using the calcium-phosphate method, as previously described. Cells (5000 to 15,000) were plated on collagen-treated Nunclon Delta Surface 96-well plates (Thermo Fisher Scientific) and incubated at 37 °C with 5% CO2. […] Plates were stored at −80 °C for up to two weeks.
(§3) Thawed plates were assessed for protein content and assayed for β-galactosidase activity. Relative protein concentration was determined by adding 10 µL of cell lysate to 200 µL of a 1:5 dilution of Bio Rad G250 protein dye in a 96-well plate.
(§4) The EC50 and pA2 values represent the mean of duplicate replicates performed in at least three independent experiments. The EC50 and pA2 values and their associated standard errors (SEM) were determined by fitting the data to a nonlinear least-squares analysis using the PRISM program (v4.0, GraphPad Inc., San Diego, CA, USA). The ligands were assayed as TFA salt and not corrected for peptide content.

mMC5R = biological target: T2, mMC5R (Mus musculus, UniProt P41149); assay: β-galactosidase cAMP reporter assay, agonist pharmacology in HEK293 cells stably expressing mMC5R; assay type: cell-based; conditions: for EC50: β-galactosidase cAMP, HEK293, mean ± SEM, apparent EC50 for partial agonists; for decreased agonist potency at the mMC5R compared to KNS2-22-4: ratio of EC50 to KNS2-22-4
T2 construct: expressed in transfected cells
Method: as §1, §2, §3, §4

mMC1R = biological target: T3, mMC1R (Mus musculus, UniProt Q01727); assay: AlphaScreen cAMP assay, agonist pharmacology in HEK293 cells stably expressing mMC1R; assay type: cell-based; conditions: for EC50: AlphaScreen cAMP, HEK293, mean ± SEM, at least three experiments; for decreased agonist potency at the mMC1R compared to KNS2-22-4: ratio of EC50 to KNS2-22-4; for potency increase at the mMC1R relative to Ac-His-DPhe-Arg-Trp-NH2: compared with KNS2-153
T3 construct: expressed in transfected cells
Method: as §1
Peptide ligands were dissolved in DMSO at stock concentrations of 10^−2 M. To assess the pharmacological activity of the tetrapeptides at the mMC1R, HEK293 cells stably expressing the mMC1R were stimulated with the ligands using the cAMP AlphaScreen assay (PerkinElmer) according to the manufacturer’s instruction and as previously described.
Cells were dislodged with Versene (Gibco) at 37 °C, and 10,000 cells/well were plated in a 384-well plate (Optiplate) with freshly made stimulation buffer (Hank’s Balanced Salt Solution (HBSS, 1×), 0.5 mM 3-isobutyl-1-methylxanthine (IBMX), 5 mM HEPES, and 0.1% bovine serum albumin (BSA), pH = 7.4) with 0.5 μg anti-cAMP acceptor beads per well.
Plates were incubated for an additional 2 h in the dark. Post incubation, the plates were read by an EnSpire plate reader (PerkinElmer, Waltham, MA, USA).
as §4

mMC4R [1] = biological target: T4, mMC4R (Mus musculus, UniProt P56450); assay: β-galactosidase cAMP reporter assay, antagonist Schild analysis with NDP-MSH as agonist; assay type: cell-based; conditions: for mMC4R antagonist activity: Schild design, in the concentrations assayed; for mMC4R antagonist activity / mMC4R pA2: agonist NDP-MSH; for mMC4R pA2: Schild analysis, <5.5 = no antagonist potency at highest range (10,000, 5000, 1000, 500 nM)
T4 construct: expressed in transfected cells
Method: as §1, §2, §3, §4

MC3R = conditions: previous studies; cited from earlier work
MC4R = conditions: cited from earlier work
mMC4R [2] = biological target: T4, mMC4R; assay: β-galactosidase cAMP reporter assay, agonist pharmacology in HEK293 cells stably expressing mMC4R; assay type: cell-based; conditions: for mMC4R agonist activity: full agonist = >90% of maximal NDP-MSH signal, inactive = <20% at 100 µM; for mMC4R percent maximal stimulation relative to NDP-MSH (partial agonist): relative to maximal NDP-MSH signal
Method: as §1, §2, §3, §4

[3] = biological target: mouse melanocortin-1 receptor (mouse) (UniProt Q01727)
[4] = biological target: mouse melanocortin-3 receptor (mouse) (UniProt P33033)
[5] = biological target: mouse melanocortin-4 receptor (mouse) (UniProt P56450)
[6] = biological target: mouse melanocortin-5 receptor (mouse) (UniProt P41149)
Sequence of mouse melanocortin-5 receptor (mouse) (P41149 whole entry): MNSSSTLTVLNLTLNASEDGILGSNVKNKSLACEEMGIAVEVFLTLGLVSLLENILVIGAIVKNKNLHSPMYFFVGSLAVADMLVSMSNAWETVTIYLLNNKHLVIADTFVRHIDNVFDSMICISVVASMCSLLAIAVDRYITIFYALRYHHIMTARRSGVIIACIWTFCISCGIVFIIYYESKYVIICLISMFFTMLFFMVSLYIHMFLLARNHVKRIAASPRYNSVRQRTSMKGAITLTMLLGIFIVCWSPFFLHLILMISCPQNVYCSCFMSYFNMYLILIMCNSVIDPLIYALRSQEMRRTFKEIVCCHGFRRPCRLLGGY

T3 sequence (Q01727 whole entry): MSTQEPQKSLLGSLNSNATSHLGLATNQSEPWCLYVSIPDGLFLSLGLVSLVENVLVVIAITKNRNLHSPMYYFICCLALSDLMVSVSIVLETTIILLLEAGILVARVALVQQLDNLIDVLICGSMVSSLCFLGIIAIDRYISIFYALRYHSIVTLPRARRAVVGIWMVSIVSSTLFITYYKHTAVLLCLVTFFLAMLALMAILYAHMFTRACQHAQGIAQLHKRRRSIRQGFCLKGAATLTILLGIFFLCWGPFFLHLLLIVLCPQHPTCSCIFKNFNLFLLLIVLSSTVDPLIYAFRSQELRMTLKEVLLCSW
T2 sequence (P41149 whole entry): as the sequence (P41149 whole entry) above
T1 sequence (P33033 whole entry): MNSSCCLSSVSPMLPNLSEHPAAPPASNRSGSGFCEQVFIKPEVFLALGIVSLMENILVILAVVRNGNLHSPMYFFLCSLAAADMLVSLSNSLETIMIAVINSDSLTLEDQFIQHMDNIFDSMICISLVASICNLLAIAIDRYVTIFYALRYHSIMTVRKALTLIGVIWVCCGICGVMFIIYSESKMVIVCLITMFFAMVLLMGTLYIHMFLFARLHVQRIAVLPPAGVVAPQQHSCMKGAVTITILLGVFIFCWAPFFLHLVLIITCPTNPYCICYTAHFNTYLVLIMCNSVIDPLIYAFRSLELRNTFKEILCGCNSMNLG
T4 sequence (P56450 whole entry): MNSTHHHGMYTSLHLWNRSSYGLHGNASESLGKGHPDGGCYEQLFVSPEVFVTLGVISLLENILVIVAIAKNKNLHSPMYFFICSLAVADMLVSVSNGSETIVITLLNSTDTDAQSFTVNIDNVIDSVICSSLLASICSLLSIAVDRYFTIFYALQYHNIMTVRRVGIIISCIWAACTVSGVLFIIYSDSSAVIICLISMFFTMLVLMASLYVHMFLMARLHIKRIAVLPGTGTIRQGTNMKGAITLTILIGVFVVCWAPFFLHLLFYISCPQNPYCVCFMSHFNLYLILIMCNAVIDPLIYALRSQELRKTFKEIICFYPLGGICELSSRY
Sequence of mouse melanocortin-1 receptor (mouse) (Q01727 whole entry): as the sequence (Q01727 whole entry) above
Sequence of mouse melanocortin-3 receptor (mouse) (P33033 whole entry): as the sequence (P33033 whole entry) above
Sequence of mouse melanocortin-4 receptor (mouse) (P56450 whole entry): as the sequence (P56450 whole entry) above

Molecule | mMC3R percent maximal stimulation relative to NDP-MSH (partial agonist) (mMC3R) [% NDP] | EC50 (mMC3R) [nM] | EC50 (mMC5R) [nM] | EC50 (mMC1R) [nM] | Kb (mMC4R [1]) [nM] | decreased agonist potency at the mMC3R compared to KNS2-22-4 (mMC3R) [fold] | EC50 (mMC4R [2]) [nM] | decreased agonist potency at the mMC1R compared to KNS2-22-4 (mMC1R) [fold] | mMC4R percent maximal stimulation relative to NDP-MSH (partial agonist) (mMC4R [2]) [% NDP] | mMC4R pA2 (mMC4R [1]) | also measured
CC(=O)N[C@@H](Cc1c[nH]cn1)C(=O)N[C@@H](CCCNC(=N)N)C(=O)N[C@H](Cc1ccc(C#N)cc1)C(=O)N1Cc2ccccc2C[C@H]1C(N)=O [KNS2-23-8, Ac-His-Arg-(pCN)DPhe-Tic-NH2] (Ac-HR[dPhe(4-CN)][Tic]-NH2) | 75 | 4000 | 500 ± 100 | 27 ± 6 | > 3160 |  |  |  |  |  | mMC4R antagonist activity (mMC4R [1]): did not result in antagonist activity
Ac-His-(pI)DPhe-Arg-Trp-NH2 |  |  |  |  |  |  |  |  |  |  | MC3R activity (MC3R): partial agonist with antagonist activity; MC4R agonist activity (MC4R; previous studies): full agonist
CC(=O)N[C@@H](Cc1c[nH]cn1)C(=O)N[C@@H](CCCNC(=N)N)C(=O)N[C@H](Cc1ccccc1)C(=O)N1Cc2ccccc2C[C@H]1C(N)=O [KNS3-10, Ac-His-Arg-DPhe-Tic-NH2] (Ac-HR[dF][Tic]-NH2) | 85 | 900 | 200 | 4.6 ± 0.4 |  | 70 | 3000 ± 2000 | 6 |  |  | mMC5R agonist efficacy (mMC5R; full agonist = >90% of maximal NDP-MSH signal): not a full agonist; decreased agonist potency at the mMC5R compared to KNS2-22-4 (mMC5R): 5 fold; mMC5R percent maximal stimulation relative to NDP-MSH (partial agonist) (mMC5R; relative to maximal NDP-MSH signal): 65 % NDP; mMC4R agonist activity (mMC4R [2]): full agonist efficacy; also recorded: Full agonism
CC(=O)N[C@@H](Cc1c[nH]cn1)C(=O)N[C@@H](CCCNC(=N)N)C(=O)N[C@H](Cc1ccc(F)cc1)C(=O)N1Cc2ccccc2C[C@H]1C(N)=O [KNS2-22-2, Ac-His-Arg-(pF)DPhe-Tic-NH2] (Ac-HR[dPhe(4-F)][Tic]-NH2) |  | 450 ± 70 | 70 ± 40 | 1.8 ± 0.7 |  | 30 | 560 |  | 70 |  | decreased agonist potency at the mMC5R compared to KNS2-22-4 (mMC5R): 14 fold
CC(=O)N[C@@H](Cc1c[nH]cn1)C(=O)N[C@@H](CCCNC(=N)N)C(=O)N[C@H](Cc1ccc(-c2ccccc2)cc1)C(=O)N1Cc2ccccc2C[C@H]1C(N)=O [KNS2-23-1, Ac-His-Arg-DBip-Tic-NH2] (Ac-HR[dBip][Tic]-NH2) |  | 14 ± 2 | 7.6 ± 0.7 | 0.6 ± 0.1 |  |  | 1400 |  | 45 | 5.9 ± 0.2 | agonist selectivity for the mMC3R over the mMC4R (mMC3R): at least 100 fold; potency increase at the mMC1R relative to Ac-His-DPhe-Arg-Trp-NH2 (mMC1R): ≥ 10 fold
CC(=O)N[C@@H](Cc1c[nH]cn1)C(=O)N[C@@H](CCCNC(=N)N)C(=O)N[C@H](Cc1ccc(C(F)(F)F)cc1)C(=O)N1Cc2ccccc2C[C@H]1C(N)=O [KNS2-23-6, Ac-His-Arg-(pCF3)DPhe-Tic-NH2] (Ac-HR[dPhe(4-CF3)][Tic]-NH2) |  | 90 ± 30 | 13 ± 4 | 5 ± 1 | 316 | 7 | 600 | 7 | 20 | 6.5 | 
CC(=O)N[C@@H](Cc1c[nH]cn1)C(=O)N[C@@H](CCCNC(=N)N)C(=O)N[C@H](Cc1ccc(Cl)c(Cl)c1)C(=O)N1Cc2ccccc2C[C@H]1C(N)=O [KNS2-23-4, Ac-His-Arg-(3,4-diCl)DPhe-Tic-NH2] (Ac-HR[dPhe(3,4-Cl2)][Tic]-NH2) |  | 400 ± 100 | 70 ± 7 | 5 ± 2 | 708 | 30 | > 100000 | 7 |  | 6.2 | agonist selectivity for the mMC3R over the mMC4R (mMC3R): at least 100 fold; decreased agonist potency at the mMC5R compared to KNS2-22-4 (mMC5R): 14 fold; mMC4R agonist activity (mMC4R [2]): did not result in stimulation
CC(=O)N[C@@H](Cc1c[nH]cn1)C(=O)N[C@@H](CCCNC(=N)N)C(=O)N[C@H](Cc1ccc(C(C)(C)C)cc1)C(=O)N1Cc2ccccc2C[C@H]1C(N)=O [KNS2-23-3, Ac-His-Arg-(ptBu)DPhe-Tic-NH2] (Ac-HR[dPhe(4-tBu)][Tic]-NH2) | 85 | 13 | 3.4 ± 0.3 | 9 ± 3 | 158 |  | > 100000 | 13 | < 20 | 6.8 | agonist selectivity for the mMC3R over the mMC4R (mMC3R): at least 100 fold
CC(=O)N[C@@H](Cc1c[nH]cn1)C(=O)N[C@@H](CCCNC(=N)N)C(=O)N[C@H](Cc1ccc(C)cc1)C(=O)N1Cc2ccccc2C[C@H]1C(N)=O [KNS2-23-7, Ac-His-Arg-(pMe)DPhe-Tic-NH2] (Ac-HR[dPhe(4-Me)][Tic]-NH2) |  | 110 ± 20 | 17 ± 4 | 1 ± 0.3 |  | 8 | 700 |  | 50 |  | potency increase at the mMC1R relative to Ac-His-DPhe-Arg-Trp-NH2 (mMC1R): ≥ 10 fold
Ac-Val-Gln-(pI)DPhe-DTic-NH2 |  |  |  |  |  |  |  |  |  |  | MC4R efficacy relative to NDP-MSH (MC4R; partial stimulation, % efficacy of NDP-MSH): less than 50%
NDP-MSH (peptide) |  |  |  |  |  |  |  |  |  |  | agonist EC50, cAMP AlphaScreen assay in HEK293 cells stably expressing mMC1R [3]: 0.009 nM; agonist EC50, β-galactosidase cAMP reporter assay in HEK293 cells stably expressing mMC3R [4]: 0.52 nM; agonist EC50, β-galactosidase cAMP reporter assay in HEK293 cells stably expressing mMC4R [5]: 0.32 nM; agonist EC50, β-galactosidase cAMP reporter assay in HEK293 cells stably expressing mMC5R [6]: 3.4 nM
CC(=O)N[C@@H](Cc1c[nH]cn1)C(=O)N[C@@H](CCCNC(=N)N)C(=O)N[C@H](Cc1ccc(Br)cc1)C(=O)N1Cc2ccccc2C[C@H]1C(N)=O [KNS2-22-3, Ac-His-Arg-(pBr)DPhe-Tic-NH2] (Ac-HR[dPhe(4-Br)][Tic]-NH2) |  | 90 ± 20 | 9.7 ± 0.5 | 0.7 ± 0.3 |  |  | 290 |  | 55 |  | potency increase at the mMC1R relative to Ac-His-DPhe-Arg-Trp-NH2 (mMC1R): ≥ 10 fold
CC(=O)N[C@@H](Cc1c[nH]cn1)C(=O)N[C@@H](CCCNC(=N)N)C(=O)N[C@H](Cc1ccc(O)cc1)C(=O)N1Cc2ccccc2C[C@H]1C(N)=O [KNS2-23-9, Ac-His-Arg-DTyr-Tic-NH2] (Ac-HR[dY][Tic]-NH2) | 85 | 4200 | 1000 ± 500 | 40 ± 10 |  |  | > 100000 |  |  |  | mMC4R agonist activity (mMC4R [2]): did not possess agonist or antagonist activity; mMC4R antagonist activity (mMC4R [1]): did not possess agonist or antagonist activity; Kb (mMC4R [1]; read-out: mMC4R pA2 (converted)): > 3160 nM
